Assay results from patent US10864192B2, “Compositions and methods for inhibiting brain trauma-induced neurodegeneration and related conditions” (priority 2016, dated 2020).

Experiments:
[1] = system: cultured hippocampal neurons; experiment: Glutamate-induced excitotoxicity in cultured neurons; assay type: cell-based, rat (Sprague Dawley); conditions: phenserine 5 μM, glutamate 50 μM, 24 hr
Description: Briefly, cultured hippocampal neurons in triplicate were prepared from 18-20 day rat (Sprague Dawley) embryos and were cultured for 7 days. […] Neuronal viability was assessed 24 hr after addition of glutamate. The results are plotted as percent neuronal survival±SEM. […] Twenty-four hours later cell viability was quantified (by MTS assay—using, for example but not limited to, the CellTiter 96 Aqueous One Solution Cell Proliferation Assay kit (Promega, Madison, Wis., USA) according to the manufacturer's instructions).

Sprague-Dawley rats = experiment: Focal cerebral ischemia model (MCA ligation), pre-treatment; assay type: in vivo, rat
Description: Briefly, Human neuroblastoma SH-SY5Y cells were incubated in oxygen-glucose deprivation and hypoxia using serum- and glucose-free media and 95% N2 and 5% CO2 for 5 minutes. Adult male Sprague-Dawley rats (250 to 350 g weight) were anesthetized with chloral hydrate (0.4 g/kg, intraperitoneally) and right middle cerebral artery (MCA) was ligated for 60 minutes. The core body temperature of animals was maintained at 37° C. throughout the procedure.

wild-type mice = experiment: Concussive mTBI in wild-type mice, immunohistochemistry 72 hr post injury; assay type: in vivo, mouse; conditions: 72 hr post TBI
Description: FIG. 18 illustrates (−)-Phenserine administration preventing mTBI-induced neurodegeneration in hippocampus and lateral cortex (72 hr post concussive TBI). […] Representative images of FJC staining in hippocampus (CA1) Magnification 60× (n=5/group; *p<0.05, **p<0.01, ***p<0.001 vs. Control (CTRL) sham by Tukey's post hoc test; ^^p<0.01 vs. mTBI alone by Tukey's post hoc test).
Neuroinflammation was evaluated by counting activated microglial cells experessing the marker IBA1 as well as by counting microglial cells co-expressing IBA1 and immunoreactivity for the pro-inflammatory cytokine TNF-α (Anti-IBA1 antibody: Abcam; anti-TNF-α antibody: Abbiotec). As evident in FIG. 20, activated microglial (IBA1 positive (+) staining) cells—a classical marker of neuroinflammation—were elevated in wild-type mice challenged with mTBI. (−)-Phenserine post-treatment mitigated this mTBI-induced effect (FIG. 20). Likewise, mTBI challenge induced a rise in IBA1+ activated microglial cells expressing the pro-inflammatory marker TNF-α (FIG. 21), which was similarly mitigated by (−)-phenserine post-treatment.
(§1) (−)-Phenserine mitigates losses in synaptic integrity in wild and Tg mice subjected to weight drop injury. To evaluate whether mTBI-induced elevations in markers of cell loss (FJC) and neuroinflammation (TNF-α and IBA1+) are allied with a loss of synaptic integrity (which associates with cognitive loss (Wakade et al., 2010)), post- and pre-synaptic protein markers of synaptic integrity (post-synaptic density-95 (PSD-95) and synaptophysin, respectively) were immunohistochemically stained and quantified in control (w/o head injury) and mTBI challenged mice post-treated with vehicle or (−)-phenserine. […] These declines were mitigated by post treatment with (−)-phenserine. An alike trend was evident in mTBI challenged APP/PS1 AD Tg mice, and these reductions in post- and presynaptic proteins were similarly mitigated by post-treatment with (−)-phenserine (FIG. 25)

[2] = system: APP/PS1 AD transgenic (Tg) male mice; experiment: Concussive mTBI in APP/PS1 AD Tg mice, immunohistochemistry 72 hr post injury; assay type: in vivo, mouse; conditions: 72 hr post TBI
From the text: To study this in a model for prevention of progression of TBI pathologies into AD with resulting neuronal cell dysfunction and death, together with neuroinflammation, we used already ongoing, aged (10 to 12 month old) APP/PS1 AD transgenic (Tg) male mice were challenged with mTBI (concussive 30 g weight drop), followed by similar (−)-phenserine or vehicle post-treatment.
To similarly cross-validate this in the more complex model of aged (10 to 12 month old) APP/PS1 AD Tg male mice, animals were challenged with mTBI (concussive 30 g weight drop) followed by (−)-phenserine or vehicle post-treatment. […] Likewise, co-localization of proinflammatory TNF-α was elevated within IBA1+ microglia across brain regions in AD Tg APP/PS1 mice with and without mTBI, and this trend was mitigated by (−)-phenserine post treatment in mTBI challenged animals (FIG. 23).
as §1

SH-SY5Y cells [3] = experiment: H2O2-induced oxidative stress in SH-SY5Y cells (MTS assay); assay type: cell-based, human; conditions: phenserine 10 and 30 μM, 100 μM H2O2, 24 hr
[4] = molecular target: acetylcholinesterase (AChE) (Homo sapiens (Human), UniProt P22303); experiment: RBC AChE inhibition after oral phenserine in humans; assay type: in vivo; conditions: 15 mg immediate release dose, TMax (1 hr)
acetylcholinesterase (AChE), sequence (P22303 32-574 with tags or gaps limits assumed): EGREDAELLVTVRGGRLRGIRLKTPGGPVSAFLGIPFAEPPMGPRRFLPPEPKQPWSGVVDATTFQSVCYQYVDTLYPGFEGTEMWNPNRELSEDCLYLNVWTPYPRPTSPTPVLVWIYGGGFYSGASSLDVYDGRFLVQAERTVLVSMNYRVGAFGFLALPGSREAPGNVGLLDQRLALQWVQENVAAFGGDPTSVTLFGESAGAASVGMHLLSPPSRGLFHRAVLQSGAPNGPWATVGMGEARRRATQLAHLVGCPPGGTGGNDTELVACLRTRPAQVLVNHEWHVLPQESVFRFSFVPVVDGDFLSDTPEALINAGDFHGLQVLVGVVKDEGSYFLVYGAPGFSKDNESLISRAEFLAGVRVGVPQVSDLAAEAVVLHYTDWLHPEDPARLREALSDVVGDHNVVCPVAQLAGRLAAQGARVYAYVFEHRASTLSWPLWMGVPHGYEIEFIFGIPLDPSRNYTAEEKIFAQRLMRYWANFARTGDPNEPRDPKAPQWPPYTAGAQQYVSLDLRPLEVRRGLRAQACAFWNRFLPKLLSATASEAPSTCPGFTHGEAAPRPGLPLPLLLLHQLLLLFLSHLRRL
Description: For pharmacodynamics AChE inhibition analyses: erythrocyte AChE levels were evaluated in whole blood samples by using methods known in the art. Briefly, duplicate samples of freshly collected whole blood were analyzed. Cholinesterase activity, U/L, was detected at 37° C. using a differential pH procedure on a Eurochem CL-10 (Rome, Italy). The time-course of enzyme inhibition was determined for each subject by expressing each mean post-phenserine administration AChE concentration as a fraction of the mean pre-administration resting level of AChE within the same individual. This value was then subtracted from 1 and multiplied by 100% to provide percent AchE inhibition.

SH-SY5Y cells [5] = experiment: Cell proliferation of SH-SY5Y cells (MTS assay); assay type: cell-based, human; conditions: 30 uM, 24 hr
Description: SHSYSY cells were exposed for 24 hr to 30 uM concentration of (−)- and (+)-phenserine. After 24 hr cell proliferation was determined by MTS assay. *P,0.05, **p,0.01, and ***p,0.001 compared to control samples without drug.

[6] = Plasma concentrations of phenserine and its metabolites in beagle dog plasma; assay type: in vivo
SH-SY5Y neuronal cells = experiment: Phenserine plus anti-inflammatory drug, oxidative stress and trophic effects in SH-SY5Y cells (MTS assay)
Description: Human SH-SY5Y neuronal cells were seeded in 96-well plates at a density of 1×10^5 cells per well and allowed to grow for 24 hr. […] […] At 18 hr thereafter a MTS assay was performed per the manufacturers protocol (Abcam, Cambridge, Mass.) to measure cell viability.
For example, instead of aspirin (as shown in FIG. 3A), an NSAID, naproxen, was used under the same experimental conditions at concentrations in FIGS. 3B-3D.

[7] = pre-treatment, brain and SH-SY5Y cells
[8] = 5 mg/kg BID, hippocampus and lateral cortex

CN1CC[C@@]2(C)c3cc(OC(=O)Nc4ccccc4)ccc3N(C)[C@@H]12 [phenserine, (−)-phenylcarbamoyleseroline]
cell viability (percent neuronal survival) [1]: 73.5 % of control levels | B-cell lymphoma 2 (Bcl-2) expression (Sprague-Dawley rats; pre-treatment): increased | body symmetry (Sprague-Dawley rats; pre-treatment): improved | brain-derived neurotrophic factor (BDNF) expression (Sprague-Dawley rats; pre-treatment): increased | cell death (Sprague-Dawley rats; pre-treatment): reduced | glial fibrillary acidic protein (GFAP) expression (Sprague-Dawley rats; pre-treatment): decreased | brain infarction area (Sprague-Dawley rats; pre-treatment twice daily prior to MCA occlusion): reduced | activated-caspase 3 levels (Sprague-Dawley rats; [7]): decreased | amyloid precursor protein (APP) expression (Sprague-Dawley rats; [7]): decreased | mTBI-induced neurodegeneration (Fluoro-Jade C+ cells) (wild-type mice; [8]): fully counteracted | mTBI-induced reductions in synaptophysin and PSD-95 (wild-type mice): mitigated | mTBI-induced activation of microglia (IBA1+ cells) (wild-type mice; hippocampus and lateral cortex): mitigated | mTBI-induced elevations in TNF-α within microglia (co-localized TNF-α and IBA1+ cells) (wild-type mice; hippocampus and lateral cortex): mitigated | mTBI-induced activation of microglia (IBA1+ cells) [2, 8]: mitigated | mTBI-induced neurodegeneration (Fluoro-Jade C+ cells) [2, 8]: counteracted | mTBI-induced reductions in synaptophysin and PSD-95 [2]: mitigated | mTBI-induced elevations in TNF-α within microglia (co-localized TNF-α and IBA1+ cells) ([2]; hippocampus and lateral cortex): mitigated | H2O2-mediated neuronal toxicity (cell viability) (SH-SY5Y cells [3]): significantly ameliorated | AChE inhibition in RBCs [4]: 34% | cell proliferation (neurotrophic actions) (SH-SY5Y cells [5]): increasing cellular proliferation | Average Plasma Concentrations ([6]; Hour 1): 4.95 ng/mL | Average Plasma Concentrations ([6]; Hour 2): 15.4 ng/mL | Average Plasma Concentrations ([6]; Hour 3): 0.71 ng/mL | Average Plasma Concentrations ([6]; Hour 4): 0.97 ng/mL | oxidative stress-induced cellular death (cell viability) (SH-SY5Y neuronal cells; ASA 10^−5 M, (−)-Phen 10^−7 M, 10^−6 M, H2O2 50 μM, 18 hr): no activity | loss in cell viability following oxidative stress (SH-SY5Y neuronal cells; H2O2 300 μM, phenserine 100 nM, naproxen 10 to 1000 nM): does not statistically mitigate | neurotrophic effect (cell survival) (SH-SY5Y neuronal cells; phenserine 10 nM, naproxen 100 nM): no neurotrophic action
